Results: patent US10981894B2, “Melanocortin subtype-2 receptor (MC2R) antagonists and uses thereof” (Crinetics Pharmaceuticals, Inc., priority 2018, dated 2021)

Target: hMC2 receptor (Homo sapiens, UniProt Q01718)
Test: hMC2 membrane binding assay ([125I]ACTH (1-39) Tyr23, SPA)
Parameters: scale not given here
Details: crude hMC2R membranes from CRE-bla-CHO-K1 cells expressing hMC2 receptor and hMRAP; [125I]ACTH (1-39) Tyr23 0.2 nM; 1.5 hours at room temperature; read-out: MC2R binding potency
Procedure, shortened: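 Ki comes from non-linear regression of SPA scintillation counts. Displacement of 0.2 nM [125I]ACTH(1-39) Tyr23 by compound dose series (usually 0–10,000 nM final) ran 1.5 h at room temperature. Membranes came from CHO-K1 CRE-bla cells stably expressing hMC2R plus hMRAP, bead-coupled in pH 7.4 buffer with 0.2% BSA.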

hMC2 receptor, sequence (Q01718 whole entry): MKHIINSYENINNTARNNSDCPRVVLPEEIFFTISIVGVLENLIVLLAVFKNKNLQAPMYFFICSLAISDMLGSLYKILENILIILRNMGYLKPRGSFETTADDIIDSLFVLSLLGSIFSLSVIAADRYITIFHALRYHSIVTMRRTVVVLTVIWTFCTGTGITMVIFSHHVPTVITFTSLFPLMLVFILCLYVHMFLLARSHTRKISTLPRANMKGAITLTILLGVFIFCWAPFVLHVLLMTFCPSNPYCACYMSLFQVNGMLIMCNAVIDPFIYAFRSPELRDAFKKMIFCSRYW
hMC2 receptor, sequence (Q8TCY5 whole entry partner): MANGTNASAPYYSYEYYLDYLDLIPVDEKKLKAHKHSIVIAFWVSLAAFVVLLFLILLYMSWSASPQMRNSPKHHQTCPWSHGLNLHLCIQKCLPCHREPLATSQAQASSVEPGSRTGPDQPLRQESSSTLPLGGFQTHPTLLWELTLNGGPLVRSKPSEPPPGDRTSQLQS

Row | Ki | SMILES
1 | < 10 nM | CCOc1ccc(C(=O)N2CCN(c3ccc(-c4cccnc4OCC)nc3C(=O)NC3CN(C)C3)[C@H](CC)C2)c(C(F)(F)F)n1 [Compound 1-233, 2′-ethoxy-5-[(2R)-4-[6-ethoxy-2-(trifluoromethyl)pyridine-3-carbonyl]-2-ethylpiperazin-1-yl]-N-(1-methylazetidin-3-yl)-[2,3′-bipyridine]-6-carboxamide]
2 | < 10 nM | CCOc1ccccc1-c1ccc(N2CCN(C(=O)c3ccc(Cl)cc3C(F)(F)F)C[C@H]2CC)c(C(=O)NCCN(C)C)n1 [Compound 1-149, 3-[(2R)-4-[4-chloro-2-(trifluoromethyl)benzoyl]-2-ethylpiperazin-1-yl]-N-[2-(dimethylamino)ethyl]-6-(2-ethoxyphenyl)pyridine-2-carboxamide]
3 | 10 to 100 nM | CC[C@@H]1CN(C(=O)c2ccc(C(F)(F)F)cc2Cl)CCN1c1ccc(-c2ccccc2Cl)cc1C(=O)NCCN [Compound 1-6, N-(2-aminoethyl)-2′-chloro-4-[(2R)-4-[2-chloro-4-(trifluoromethyl)benzoyl]-2-ethylpiperazin-1-yl]-[1,1′-biphenyl]-3-carboxamide]
4 | < 10 nM | CCOc1ncccc1-c1ccc(N2CCN(C(=O)c3ccc(F)cc3C(F)(F)F)C[C@H]2CC)c(C(=O)NCCN)c1 [Compound 1-58, N-(2-aminoethyl)-5-(2-ethoxypyridin-3-yl)-2-[(2R)-2-ethyl-4-[4-fluoro-2-(trifluoromethyl)benzoyl]piperazin-1-yl]benzamide]
5 | < 10 nM | CCOc1ncccc1-c1ccc(N2CCN(C(=O)C3(C(F)(F)F)CCCC3)C[C@H]2CC)c(C(=O)NCC2CN(C)C2)n1 [Compound 1-313, 2′-ethoxy-5-[(2R)-2-ethyl-4-[1-(trifluoromethyl)cyclopentanecarbonyl]piperazin-1-yl]-N-[(1-methylazetidin-3-yl)methyl]-[2,3′-bipyridine]-6-carboxamide]
6 | < 10 nM | CCOc1ncccc1-c1ccc(N2CCN(C(=O)c3ccc(Cl)cc3C(F)(F)F)C[C@H]2CC)c(C(=O)NCCc2nccn2C)n1 [Compound 1-234, 5-[(2R)-4-[4-chloro-2-(trifluoromethyl)benzoyl]-2-ethylpiperazin-1-yl]-2′-ethoxy-N-[2-(1-methyl-1H-imidazol-2-yl)ethyl]-[2,3′-bipyridine]-6-carboxamide]
7 | 10 to 100 nM | CCOc1ncccc1-c1ccc(N2CCN(C(=O)C3(C(F)(F)F)CCC3)C[C@H]2CC)c(C(=O)NC[C@@H]2CCN2C)n1 [Compound 1-390, 2′-ethoxy-5-[(2R)-2-ethyl-4-[1-(trifluoromethyl)cyclobutanecarbonyl]piperazin-1-yl]-N-{[(2S)-1-methylazetidin-2-yl]methyl}-[2,3′-bipyridine]-6-carboxamide]
8 | < 10 nM | CCOc1ncccc1-c1ccc(N2CCN(C(=O)c3ccc(C)cc3Cl)C[C@H]2CC)c(C(=O)NCCN)c1 [Compound 1-43, N-(2-aminoethyl)-2-[(2R)-4-(2-chloro-4-methylbenzoyl)-2-ethylpiperazin-1-yl]-5-(2-ethoxypyridin-3-yl)benzamide]
9 | < 10 nM | CCOc1ncccc1-c1ccc(N2CCN(C(=O)C3(C(F)(F)F)CCC3)C[C@H]2CC)c(C(=O)N[C@@H]2CCN(C)C2)n1 [Compound 1-283, 2′-ethoxy-5-[(2R)-2-ethyl-4-[1-(trifluoromethyl)cyclobutanecarbonyl]piperazin-1-yl]-N-[(3R)-1-methylpyrrolidin-3-yl]-[2,3′-bipyridine]-6-carboxamide]

Continued, molecule first:

Row | SMILES | Ki
10 | CCOc1ncccc1-c1ccc(N2CCN(C(=O)c3ccc(Cl)cc3OC)C[C@H]2CC)c(C(=O)NCCN)c1 [Compound 1-54, N-(2-aminoethyl)-2-[(2R)-4-(4-chloro-2-methoxybenzoyl)-2-ethylpiperazin-1-yl]-5-(2-ethoxypyridin-3-yl)benzamide] | < 10 nM
11 | CCOc1ccccc1-c1ccc(N2CCN(C(=O)N3CCc4cc(F)cc(C#N)c43)C[C@H]2CC)c(C(=O)N[C@H]2CCN(C)C2)n1 [Compound 1-426, 3-[(2R)-4-(7-cyano-5-fluoro-2,3-dihydro-1H-indole-1-carbonyl)-2-ethylpiperazin-1-yl]-6-(2-ethoxyphenyl)-N-[(3S)-1-methylpyrrolidin-3-yl]pyridine-2-carboxamide] | < 10 nM
12 | CCOc1ncccc1-c1ccc(N2CCN(C(=O)C3(C(F)(F)F)CCCC3)C[C@H]2CC)c(C(=O)N[C@H]2CCN(C)C2)n1 [Compound 1-363, 2′-ethoxy-5-[(2R)-2-ethyl-4-[1-(trifluoromethyl)cyclopentanecarbonyl]piperazin-1-yl]-N-[(3S)-1-methylpyrrolidin-3-yl]-[2,3′-bipyridine]-6-carboxamide] | < 10 nM
13 | CCOc1ncccc1-c1ccc(N2CCN(C(=O)c3ccc(Cl)cc3C#N)C[C@H]2CC)c(C(=O)N[C@@H]2CCNC2)c1 [Compound 1-142, 2-[(2R)-4-(4-chloro-2-cyanobenzoyl)-2-ethylpiperazin-1-yl]-5-(2-ethoxypyridin-3-yl)-N-[(3R)-pyrrolidin-3-yl]benzamide] | < 10 nM
14 | CCOc1ccccc1-c1ccc(N2CCN(C(=O)N3CCC[C@H]3C(F)(F)F)C[C@H]2CC)c(C(=O)N[C@@H]2CCNC2)n1 [Compound 1-342, 6-(2-ethoxyphenyl)-3-[(2R)-2-ethyl-4-[(2S)-2-(trifluoromethyl)pyrrolidine-1-carbonyl]piperazin-1-yl]-N-[(3R)-pyrrolidin-3-yl]pyridine-2-carboxamide] | < 10 nM
15 | CCOc1ncccc1-c1ccc(N2CCN(C(=O)C3(C(F)(F)F)CCCC3)C[C@H]2CC)c(C(=O)NC[C@H]2CCN2)n1 [Compound 1-327, N-{[(2R)-azetidin-2-yl]methyl}-2′-ethoxy-5-[(2R)-2-ethyl-4-[1-(trifluoromethyl)cyclopentanecarbonyl]piperazin-1-yl]-[2,3′-bipyridine]-6-carboxamide] | < 10 nM
16 | CCOc1ncccc1-c1ccc(N2CCN(C(=O)c3ccc(Cl)cc3C(F)(F)F)C[C@H]2CC)c(C(=O)NCCc2cnc[nH]2)c1 [Compound 1-84, 2-[(2R)-4-[4-chloro-2-(trifluoromethyl)benzoyl]-2-ethylpiperazin-1-yl]-5-(2-ethoxypyridin-3-yl)-N-[2-(1H-imidazol-5-yl)ethyl]benzamide] | < 10 nM
17 | CCOc1ccccc1-c1ccc(N2CCN(C(=O)c3ccc(Cl)cc3C(F)(F)F)C[C@H]2CC)c(C(=O)N[C@@H]2CCNC2)n1 [Compound 1-209, 3-[(2R)-4-[4-chloro-2-(trifluoromethyl)benzoyl]-2-ethylpiperazin-1-yl]-6-(2-ethoxyphenyl)-N-[(3R)-pyrrolidin-3-yl]pyridine-2-carboxamide] | < 10 nM
18 | CCOc1ncccc1-c1ccc(N2CCN(C(=O)C3(C(F)(F)F)CCCC3)C[C@H]2CC)c(C(=O)NCC2=NCCN2C)n1 [Compound 1-415, 2′-ethoxy-5-[(2R)-2-ethyl-4-[1-(trifluoromethyl)cyclopentanecarbonyl]piperazin-1-yl]-N-[(1-methyl-4,5-dihydro-1H-imidazol-2-yl)methyl]-[2,3′-bipyridine]-6-carboxamide] | < 10 nM
19 | CCOc1ccc(C(=O)N2CCN(c3ccc(-c4cccnc4OCC)nc3C(=O)NC[C@@H]3CCN3C)[C@H](CC)C2)c(C(F)(F)F)n1 [Compound 1-257, 2′-ethoxy-5-[(2R)-4-[6-ethoxy-2-(trifluoromethyl)pyridine-3-carbonyl]-2-ethylpiperazin-1-yl]-N-{[(2S)-1-methylazetidin-2-yl]methyl}-[2,3′-bipyridine]-6-carboxamide] | < 10 nM
20 | CCOc1ccccc1-c1ccc(N2CCN(C(=O)c3ccc(F)cc3C(F)F)C[C@H]2CC)c(C(=O)N[C@@H]2CCNC2)n1 [Compound 1-292, 3-[(2R)-4-[2-(difluoromethyl)-4-fluorobenzoyl]-2-ethylpiperazin-1-yl]-6-(2-ethoxyphenyl)-N-[(3R)-pyrrolidin-3-yl]pyridine-2-carboxamide] | < 10 nM
21 | CCOc1ncccc1-c1ccc(N2CCN(C(=O)c3ccc(Cl)cc3C(F)(F)F)C[C@H]2CC)c(C(=O)NC2CN(C)C2)n1 [Compound 1-212, 5-[(2R)-4-[4-chloro-2-(trifluoromethyl)benzoyl]-2-ethylpiperazin-1-yl]-2′-ethoxy-N-(1-methylazetidin-3-yl)-[2,3′-bipyridine]-6-carboxamide] | < 10 nM
22 | CCOc1ncccc1-c1ccc(N2CCN(C(=O)OC3(CC)CCCC3)C[C@H]2CC)c(C(=O)N[C@@H]2CCN(C)C2)n1 [Compound 1-397, 1-ethylcyclopentyl (3R)-4-(2′-ethoxy-6-{[(3R)-1-methylpyrrolidin-3-yl]carbamoyl}-[2,3′-bipyridin]-5-yl)-3-ethylpiperazine-1-carboxylate] | < 10 nM
23 | CCOc1ccccc1-c1ccc(N2CCN(C(=O)N3CCc4cc(F)cc(Cl)c43)C[C@H]2CC)c(C(=O)N[C@H]2CCN(C)C2)n1 [Compound 1-421, 3-[(2R)-4-(7-chloro-5-fluoro-2,3-dihydro-1H-indole-1-carbonyl)-2-ethylpiperazin-1-yl]-6-(2-ethoxyphenyl)-N-[(3S)-1-methylpyrrolidin-3-yl]pyridine-2-carboxamide] | < 10 nM
24 | CCOc1ncccc1-c1ccc(N2CCN(C(=O)C3(C(F)(F)F)CCCC3)C[C@H]2CC)c(C(=O)NC23CCN(CC2)C3)n1 [Compound 1-405, N-{1-azabicyclo[2.2.1]heptan-4-yl}-2′-ethoxy-5-[(2R)-2-ethyl-4-[1-(trifluoromethyl)cyclopentanecarbonyl]piperazin-1-yl]-[2,3′-bipyridine]-6-carboxamide] | < 10 nM
25 | CCOc1ncccc1-c1ccc(N2CCN(C(=O)c3ccc(Cl)cc3C(F)(F)F)C[C@H]2CC)c(C(=O)NCCN2CCCC2)c1 [Compound 1-49, 2-[(2R)-4-[4-chloro-2-(trifluoromethyl)benzoyl]-2-ethylpiperazin-1-yl]-5-(2-ethoxypyridin-3-yl)-N-[2-(pyrrolidin-1-yl)ethyl]benzamide] | < 10 nM
